# Test results reported in patent US20130253022A1 (FOX CHASE CHEMICAL DIVERSITY CENTER, INC., priority 2010, published 2013).
# Legend:
# [1] = tested on: 6-Hz psychomotor seizure; assay: 6 Hz psychomotor seizure test, mouse; format: in vivo, mice; details: ip
# Method: Methods to measure anticonvulsant activity: All tests were conducted by the Anticonvulsant Screening Program (ASP) of the National Institute of Neurological Disease and Stroke at the National Institutes of Health. The 6 Hz Seizure Test: Compounds were further tested in the 6-Hz psychomotor seizure model. (Barton et al. Pharmacological characterization of the 6 Hz psychomotor seizure model of partial epilepsy. Epilepsy Res. 2001, 47, 217-227). This model is used to detect […] that may be useful for the treatment of therapy-resistant partial seizures. For this test, an alternative electrical stimulation paradigm is used with a low frequency (6 Hz), long duration (3 seconds) corneal stimulation. The seizure evoked by this low frequency stimulation is characterized by immobility, forelimb clonus, Straub tail and facial automatisms. Mice are tested from 15 min to 4 hours following an intraperitoneal dose of 100 mg/kg. Abolition of the clonic seizures indicates the ability of a compound to prevent partial or psychomotor seizures.
# [2] = tested on: pentylenetetrazol-induced clonic seizures; assay: Subcutaneous pentylenetetrazol seizure test (scPTZ), rat; format: in vivo, Sprague-Dawley rats; details: pentylenetetrazol 70 mg/kg s.c., test compound orally, read-out: Rat PTZ ED50, s.c.
# Method: Methods to measure anticonvulsant activity: All tests were conducted by the Anticonvulsant Screening Program (ASP) of the National Institute of Neurological Disease and Stroke at the National Institutes of Health. The subcutaneous pentylenetetrazol (metrazol) seizure test (scPTZ). This model primarily identifies compounds that raise seizure threshold. The behavioral seizure produced is not typical of absence epilepsy but clonic in nature. With some minor exceptions, the pharmacological profile of the scPTZ seizure model is consistent with the human condition. The scPTZ test utilizes a dose of pentylenetetrazol (85 mg/kg in Carworth Farms No. 1 mice and 70 mg/kg in Sprague-Dawley rats). This produces clonic seizures lasting for a period of at least five seconds in 97 percent of animals tested. At the anticipated time of testing the convulsant is administered subcutaneously. The test compound is administered intraperitoneally in mice and orally in rats. Animals are observed over a 30 minute period. Absence of clonic spasms in the observed time period indicates a compound's ability to abolish the effect of pentylenetetrazol on seizure threshold (Swinyard E A. Laboratory evaluation of antiepileptic drugs: review of laboratory methods. Epilepsia, 1969, 10, 107-119).
# [3] = tested on: Hippocampal Cultures; assay: Neuroprotection from hydrogen peroxide (oxidative stress), CFDA assay; format: cell-based; details: Rattus norvegicus; 10 μM hydrogen peroxide, hippocampal cultures, 4 hour test period; read-out: NP from Hydrogen Peroxide CFDA EC50
# Text: (§1) Cell cultures: All compounds are screened with dissociated hippocampal cultures derived from embryonic day 18 rats as the primary test system. With this preparation, primary neurons are used to test for toxicity as well as neuroprotection in a highly relevant experimental system to epilepsy. In brief, hippocampal tissue are obtained commercially through Brain Bits (Springfield, Ill.) and cultures prepared as previously described by Brewer (Brewer, G. J. Serum-free B27/neurobasal medium supports differentiated growth of neurons from the striatum, substantia nigra, septum, cerebral cortex, cerebellum and dentate gyms, J. Neurosci. Res. 1995, 42, 674-683). The hippocampal neurons are platted at low density (10,000 cell/well) in a 96-well format and maintained in serum-free medium consisting of Neurobasal Medium supplemented with B27 and GlutaMAX (Gibco). Pre-coated poly-L-lysine coated plates are used because of the preferential adherence and survival of hippocampal neurons on this matrix support.
# (§2) Potent neuroprotection is the distinguishing characteristic that separates this program's anticonvulsants from all other commercial drugs for epilepsy. The experimental details and the rationale for the implemented assays are essential in differentiating these compounds from that of others. The central objective of all neuroprotective assays was their relevancy to excitotoxicity and oxidative stress related to epilepsy. Both the amount of glutamate and hydrogen peroxide used in the assays, as well as the time of treatment and duration of the experiment, were designed to be relevant to epilepsy. Further, all time parameters employed in these studies were empirically determined to be within the limits of reversible toxic events, yet using amounts of glutamate and hydrogen peroxide that were relevant to the disease. In regard to glutamate toxicity, a critical feature was the duration of treatment of the hippocampal neurons. The rational for using a short 5 min treatment with glutamate was based on the observation of Randall and Thayer (Randall, R. D.; Thayer, S. A. Glutamate-induced calcium transient triggers calcium overload and neurotoxicity in rat hippocampal neurons, J. Neurosci. 1992, 12, 1882-1895). […] The rationale is that this intense burst of glutamate and resulting calcium overload is relevant to seizures and therefore was important data to capture in the screening assay. The amount of glutamate (30 μM) employed in our screening was based on the basal levels of glutamate observed in microdialysis measurements of hippocampus from epileptogenic patients (Cavus et al. Decreased hippocampal volume on MRI is associated with increased extracellular glutamate in epilepsy patients, Epilepsia, 2008, 49, 1358-1366). In regard to hydrogen peroxide, the amount employed (10 μM) was detected in the hippocampus of rats after kainate-induced status epilepticus (Jarrett et. al., Mitochondrial DNA damage and impaired base excision repair during epileptogenesis, Neurobiol. Dis. 2008, 30, 130-138). To produce neural damage and death with these amounts of glutamate and hydrogen peroxide, the cultures were changed to a medium with significant depletion of antioxidant components in the defined medium supplement B-27 just prior to treatment with the compounds. This was performed to obtain a significant and reproducible toxic signal in the hippocampal neurons and because loss of antioxidant control may be a component of epileptogenesis (Waldbaum and Patel, Mitochondria, oxidative stress and temporal lobe epilepsy, Epilepsy Res. 2010 88, 23-45; Wu et al., Mitochondrial DNA mutation-elicited oxidative stress, oxidative damage, and altered gene expression in cultured cells of patients with MERRF syndrome, Mol. Neurobiol. 2010, 41, 256-266). Neuroprotection studies with hydrogen peroxide were conducted with cultures that were between day 12 and day 18. Studies of neuroprotection glutamate were conducted between day 19 and day 22. […]
# [4] = tested on: Hippocampal Cultures; assay: Neuroprotection from glutamate excitotoxicity, CFDA (neuronal viability) assay; format: cell-based; details: Rattus norvegicus; 30 μM glutamate 5 min, hippocampal cultures, 4 hour test period; read-out: NP from Glutamate CFDA EC50
# Text: as §1
# as §2, with “compounds.” for “compounds. This was performed to obtain a significant and reproducible toxic signal in the hippocampal neurons and because loss of antioxidant control may be a component of epileptogenesis (Waldbaum and Patel, Mitochondria, oxidative stress and temporal lobe epilepsy, Epilepsy Res. 2010 88, 23-45; Wu et al., Mitochondrial DNA mutation-elicited oxidative stress, oxidative damage, and altered gene expression in cultured cells of patients with MERRF syndrome, Mol. Neurobiol. 2010, 41, 256-266). Neuroprotection studies with hydrogen peroxide were conducted with cultures that were between day 12 and day 18. Studies of neuroprotection glutamate were conducted between day 19 and day 22.”
# [5] = tested on: Hippocampal Cultures; assay: Neuroprotection from glutamate excitotoxicity, propidium iodide (cell death) assay; format: cell-based; details: Rattus norvegicus; 30 μM glutamate 5 min, hippocampal cultures, 4 hour test period; read-out: NP from Glutamate PI EC50
# Text: as §1, §2
SMILES,ED50 [1] [mg/kg],ED50 [2] [mg/kg],EC50 [3] [nM],EC50 [4] [nM],EC50 [5] [nM]
"NS(=O)(=O)NCC(F)(F)c1ccccc1F [Example 1, 2,2-Difluoro-2-(2-fluorophenyl)-ethyl-1-sulfamide]",18,107,1,1,1
"NS(=O)(=O)NCC(F)(F)c1ccccc1Cl [Example 2, 2,2-Difluoro-2-(2-chlorophenyl)-ethyl-1-sulfamide]",28,48,0.1,10,1
